Experimental data from patent US11661582B2, “Method for producing sinoatrial node cells (pacemaker cells) from stem cells, and use of the produced sinoatrial node cells” (UNIVERSITAET ROSTOCK, priority 2013, dated 2023).
“Also recorded” adds a separate entry of the source.

Assays:
murine ES cells = conditions: literature [9]; cited from earlier work
[1] = test system: cells derived from iSABs (Myh6-TBX3 cells); experiment: Ca2+ imaging (Fluo-4) of spontaneous Ca2+ transients and SR Ca2+ stores in iSAB-derived cells; format: cell-based, murine; conditions: for frequency of spontaneous Ca2+ transients: 5 μM ZD 7288, 1 μM mibefradil, 1 μM nifedipine, 28° C.; for diastolic Ca2+ level: caffeine 10 mM, thapsigargin 2 μM
[2] = test system: sinoatrial node cells produced in vitro from stem cells; experiment: Beat frequency of stem-cell-derived sinoatrial node cells contacted with pharmaceuticals; format: cell-based, murine; conditions: sinoatrial node cells of the invention contacted with pharmaceuticals
cells derived from aCaBs = experiment: Ca2+ imaging (Fluo-4) of SR Ca2+ stores in aCaB-derived control cells; format: cell-based, murine
[3] = test system: isolated Tbx3-programmed cells (SA/AV pacemaker-type); experiment: Single-cell patch-clamp, action potential rate of Tbx3-programmed cells; format: cell-based, murine; conditions: 37° C.
Description: For the further validation of the functionality and determination of the proportions of the subtypes of the cardiomyocytes, the electrophysiological properties were analyzed by the single-cell patch-clamp technique and the measurement of the density of the HCN (or funny) channels on day 18 of the differentiation as described [14] [16].
Spontaneous action potentials and currents of contracting cardiomyocytes were recorded at 37° C. in the perforated patch configuration using a MultiClamp 700B amplifier and pClamp10 software (Molecular Devices, Union City, USA). The offline data analysis was conducted with Clampfit software (Molecular Devices, Union City, USA) or by means of Origin 6.0 software (Microcal, Northampton, USA). […] The extracellular (bath) solution contained: 140 mM NaCl, 5.4 mM KCl, 1 mM MgCl2, 1.8 mM CaCl2, 5 mM HEPES, 5.5 mM glucose; the pH was adjusted to 7.4 with NaOH. For better recording of the If, in some cases, 2 mM BaCl2 and 0.3 mM CdCl2 were added to the bath solution in order to block IKl and ICa. If was measured by stepwise change proceeding from a hold potential of −40 mV to test potentials between −130 mV and +20 mV. The current amplitude after 3 seconds during the −130 mV pulse was divided by the cell capacitance in order to determine the current (If) density. To determine the If activation kinetics, the time constant of the activation (τ) was obtained by fitting the current trace of the −130 mV step after the initial delay with the sum of two exponential functions y=A1e1 ^−x/τ)+A2e2^(−x/τ), where τ1 and τ2 are fast and slow time constants for the activation; τ1 is accordingly referred to as τ, since the slow component (A2) of the HCN channel activation is generally <10% of the current amplitude. Isoproterenol or carbachol (Sigma, Taufkirchen, Germany) was dissolved directly in the bath solution on the day of the experiment and the cells were administered by means of a rapid exchange superfusion system. APs were recorded with a 10 kHz sampling rate. The analyses were conducted on the original traces. […]

[4] = test system: cells originating from iSAB; experiment: Single-cell patch-clamp, action potential rate of cells originating from iSAB; format: cell-based, murine; conditions: for AP rate: patch-clamp, 37° C.
Description: Spontaneous action potentials and currents of contracting cardiomyocytes were recorded at 37° C. in the perforated patch configuration using a MultiClamp 700B amplifier and pClamp10 software (Molecular Devices, Union City, USA). The offline data analysis was conducted with Clampfit software (Molecular Devices, Union City, USA) or by means of Origin 6.0 software (Microcal, Northampton, USA). […] The extracellular (bath) solution contained: 140 mM NaCl, 5.4 mM KCl, 1 mM MgCl2, 1.8 mM CaCl2, 5 mM HEPES, 5.5 mM glucose; the pH was adjusted to 7.4 with NaOH. For better recording of the If, in some cases, 2 mM BaCl2 and 0.3 mM CdCl2 were added to the bath solution in order to block IKl and ICa. If was measured by stepwise change proceeding from a hold potential of −40 mV to test potentials between −130 mV and +20 mV. The current amplitude after 3 seconds during the −130 mV pulse was divided by the cell capacitance in order to determine the current (If) density. To determine the If activation kinetics, the time constant of the activation (τ) was obtained by fitting the current trace of the −130 mV step after the initial delay with the sum of two exponential functions y=A1e1 ^−x/τ)+A2e2^(−x/τ), where τ1 and τ2 are fast and slow time constants for the activation; τ1 is accordingly referred to as τ, since the slow component (A2) of the HCN channel activation is generally <10% of the current amplitude. Isoproterenol or carbachol (Sigma, Taufkirchen, Germany) was dissolved directly in the bath solution on the day of the experiment and the cells were administered by means of a rapid exchange superfusion system. APs were recorded with a 10 kHz sampling rate. The analyses were conducted on the original traces. The inclination/slope of the linear fit of the distance from the MDP to the potential threshold is the DDR; the AP duration is the time from the threshold potential to the MDP.

CCn1c(=O)[nH]c2ccccc21 [EBIO]
formation of node cells from murine ES cells (murine ES cells): enhances the formation of node cells

CCN(c1ccccc1)c1cc(=NC)n(C)c(C)n1.Cl [ZD 7288]
frequency of spontaneous Ca2+ transients [1]: reduced the frequency of the Ca^2+ transients
frequency of spontaneous Ca2+ transients ([1]; listed as ZD7288): decrease significantly
beat frequency [2]: significant reduction in beat frequency

Cn1c(=O)c2c(ncn2C)n(C)c1=O [caffeine]
caffeine-induced effect on SR-Ca2+ release (cells derived from aCaBs; caffeine 10 mM, aCaB-derived cells): No similar caffeine-induced effect
caffeine-induced Ca2+ peak, sarcolemmal Ca2+ influx blocked ([1]; blockage of Na+/Ca2+ exchanger and Ca2+ channels, iSAB-derived cells compared to aCaB-derived cells): four times greater; also recorded: large caffeine peak
diastolic Ca2+ level ([1]; iSAB-derived cells): increased the diastolic Ca^2+ level

C[N+](C)(C)CCOC(N)=O [carbachol]
AP rate [3]: slowed
AP rate [4]: slowed
beat frequency [2]: significant reduction in beat frequency

CC(C)NCC(O)c1ccc(O)c(O)c1 (stereo not drawn) [isoproterenol]
AP rate [3]: acceleration in the AP rate
AP rate ([3]; listed as isoprotenerol): accelerated
AP rate [4]: accelerated
beat frequencies in response to isoprotenerol ([4]; range up to): up to 560 bpm
beat frequency [2]: increase in beat frequency

COCC(=O)O[C@]1(CCN(C)CCCc2nc3ccccc3[nH]2)CCc2cc(F)ccc2[C@@H]1C(C)C [mibefradil]
frequency of spontaneous Ca2+ transients [1]: moderate decrease

C/C=C(/C)C(=O)O[C@H]1C(C)=C2[C@H]([C@@H]1OC(=O)CCCCCCC)[C@@](C)(OC(C)=O)C[C@H](OC(=O)CCC)[C@@]1(O)[C@H]2OC(=O)[C@@]1(C)O [thapsigargin]
caffeine Ca2+ peak with and without SERCA inhibition (cells derived from aCaBs; control cells (aCaB-derived)): remained identical
intracellular Ca2+ accumulation with SERCA inhibition (cells derived from aCaBs; control cells (aCaB-derived)): impossible to detect any intracellular Ca^2+ accumulation
rate of intracellular Ca2+ accumulation with SERCA inhibition ([1]; Na+/Ca2+ exchanger blocked plus SERCA inhibition, vs. no SERCA inhibition, iSAB-derived cells): fourfold increase
diastolic Ca2+ level ([1]; iSAB-derived cells): increase in the Ca^2+ diastolic level; also recorded: increased diastolic Ca^2+ levels
reduction of caffeine Ca2+ peak (factor) ([1]; caffeine added 5 min after incubation with thapsigargin, iSAB-derived cells): 4
